# Results published in patent US7521396B2, “Substituted (thioxo)carbonylaminophenyluracils” (Bayer CropScience AG, priority 2002, dated 2009).
# Where two headings read alike, the source gives them in different places. Marks after values point to notes of the source that are not given here.
# Test: logP by HPLC on reversed-phase column (C 18), EEC Directive 79/831 Annex V.A8
# Format: physicochemical
# [1] = a) acidic range: 0.1% aqueous phosphoric acid, acetonitrile gradient, 43° C.
Compound,logP,further results
CCOC(=O)C(C)OC(=O)Nc1cc(-n2c(=O)cc(C(F)(F)F)n(C)c2=O)c(F)cc1Cl (stereo not drawn) [Example 127],logP = 2.74^a),
CCON(C)C(=O)Nc1cc(-n2c(=O)cc(C(F)(F)F)n(C)c2=O)c(F)cc1Cl [Example 68],logP = 2.99^a),
CCN(OC)C(=O)Nc1cc(-n2c(=O)cc(C(F)(F)F)n(C)c2=O)c(F)cc1Cl [Example 74],logP = 2.93^a),
Cn1c(C(F)(F)F)cc(=O)n(-c2cc(NC(=O)N3CCC(O)CC3)c(Br)cc2F)c1=O [Example 118],logP = 1.81^a),
Cn1c(C(F)(F)F)cc(=O)n(-c2cc(NC(=O)N3CCC4(CC3)OCCO4)c(Br)cc2F)c1=O [Example 85],logP = 2.35^a),
Cn1c(C(F)(F)F)cc(=O)n(-c2cc(NC(=O)N3CCC4(CC3)OCCCO4)c(Cl)cc2F)c1=O [Example 86],logP = 2.29^a),
CCOC(=O)C1CCCN(C(=O)Nc2cc(-n3c(=O)cc(C(F)(F)F)n(C)c3=O)c(F)cc2Cl)C1 (stereo not drawn) [Example 43],logP = 2.93^a),
CCOC(=O)CN(C)C(=O)Nc1cc(-n2c(=O)cc(C(F)(F)F)n(C)c2=O)c(F)cc1Cl [Example 121],logP = 2.48^a),
CCOC(=O)CONC(=O)Nc1cc(-n2c(=O)cc(C(F)(F)F)n(C)c2=O)c(F)cc1Cl [Example 104],logP = 2.58^a),
CCOC(=O)C(C)(C)ONC(=O)Nc1cc(-n2c(=O)cc(C(F)(F)F)n(C)c2=O)c(F)cc1Cl [Example 100],logP = 3.11^a),
Cn1c(C(F)(F)F)cc(=O)n(-c2cc(NC(=O)N3CCCS3(=O)=O)c(Cl)cc2F)c1=O [Example 102],logP = 2.38^a),
"CCOC(=O)C1CCCN(C(=O)Nc2cc(-n3c(=O)cc(C(F)(F)F)n(C)c3=O)c(F)cc2Br)C1 (stereo not drawn) [Example 1, ethyl 1-[2-bromo-4-fluoro-5-(3-methyl-2,6-dioxo-4-trifluoromethyl-3,6-dihydro-2H-pyrimidin-1-yl)phenylcarbamoyl]piperidine-3-carboxylate]",,"chromatographic logP (reversed-phase C18 HPLC column, pH 2): 2.98"
Cn1c(C(F)(F)F)cc(=O)n(-c2cc(NC(=O)N3CCC(=O)CC3)c(Cl)cc2F)c1=O [Example 92],,logP [1]: logP = 1.93^a)
Cn1c(C(F)(F)F)cc(=O)n(-c2cc(NC(=O)N3CCC(=O)CC3)c(Br)cc2F)c1=O [Example 93],,logP [1]: logP = 1.97^a)
CC(=O)NC1CCN(C(=O)Nc2cc(-n3c(=O)cc(C(F)(F)F)n(C)c3=O)c(F)cc2Cl)C1 (stereo not drawn) [Example 94],logP = 1.74^a),
CON(C)C(=O)N(c1cc(-n2c(=O)cc(C(F)(F)F)n(C)c2=O)c(F)cc1Cl)S(C)(=O)=O [Example 109],logP = 2.56^a),
CC1CN(C(=O)Nc2cc(-n3c(=O)cc(C(F)(F)F)n(C)c3=O)c(F)cc2Cl)CC(C)O1 (stereo not drawn) [Example 119],logP = 2.50^a),
C=CCN(C(=O)N(C)OC)c1cc(-n2c(=O)cc(C(F)(F)F)n(C)c2=O)c(F)cc1Cl [Example 106],,logP [1]: logP = 2.96^a)
Cn1c(C(F)(F)F)cc(=O)n(-c2cc(NC(=O)NCCC#N)c(Cl)cc2F)c1=O [Example 15],,logP [1]: logP = 2.06^a)
CCN(OC)C(=O)Nc1cc(-n2c(=O)cc(C(F)(F)F)n(C)c2=O)c(F)cc1Br [Example 75],logP = 3.01^a),
CCOC(=O)CN(C)C(=O)Nc1cc(-n2c(=O)cc(C(F)(F)F)n(C)c2=O)c(F)cc1Br [Example 122],logP = 2.54^a),
CCOC(=O)C(C)SC(=O)Nc1cc(-n2c(=O)cc(C(F)(F)F)n(C)c2=O)c(F)cc1Cl (stereo not drawn) [Example 12],logP = 3.11^a),
CCOC(=O)COC(=O)Nc1cc(-n2c(=O)cc(C(F)(F)F)n(C)c2=O)c(F)cc1Br [Example 125],logP = 2.79^a),
CON(C)C(=O)N(C)c1cc(-n2c(=O)cc(C(F)(F)F)n(C)c2=O)c(F)cc1Cl [Example 77],logP = 2.53^a),
Cn1c(C(F)(F)F)cc(=O)n(-c2cc(NC(=O)SC3=NCCS3)c(Br)cc2F)c1=O [Example 16],logP = 3.53^a),
CCOC(=O)CSC(=O)Nc1cc(-n2c(=O)cc(C(F)(F)F)n(C)c2=O)c(F)cc1Cl [Example 13],logP = 2.80^a),
Cn1c(C(F)(F)F)cc(=O)n(-c2cc(NC(=O)N3CCC4(CC3)OCCCO4)c(Br)cc2F)c1=O [Example 87],logP = 2.35^a),
CN1CCCN(C(=O)Nc2cc(-n3c(=O)cc(C(F)(F)F)n(C)c3=O)c(F)cc2Cl)C1=O [Example 56],logP = 2.76^a),
Cn1c(C(F)(F)F)cc(=O)n(-c2cc(NC(=O)N3CCC4(CC3)OCCO4)c(Cl)cc2F)c1=O [Example 84],logP = 2.29^a),
C#CCN(C(=O)N(C)OC)c1cc(-n2c(=O)cc(C(F)(F)F)n(C)c2=O)c(F)cc1Cl [Example 108],logP = 2.75^a),

# The next lines start with results.
logP,Compound,further results
logP = 2.80^a),CCN(C(=O)N(C)OC)c1cc(-n2c(=O)cc(C(F)(F)F)n(C)c2=O)c(F)cc1Cl [Example 111],
logP = 2.70^a),CCOC(=O)C1CCCN(C(=O)Nc2cc(-n3c(=O)cc(C(F)(F)F)n(C)c3=O)c(F)cc2C#N)C1 (stereo not drawn) [Example 133],
logP = 3.50^a),Cn1c(C(F)(F)F)cc(=O)n(-c2cc(NC(=O)SC3=NCCS3)c(Cl)cc2F)c1=O [Example 11],
logP = 3.35^a),CCON(CC)C(=O)Nc1cc(-n2c(=O)cc(C(F)(F)F)n(C)c2=O)c(F)cc1Cl [Example 71],
logP = 2.89^a),Cn1c(C(F)(F)F)cc(=O)n(-c2cc(NC(=O)N3CCCCO3)c(Cl)cc2F)c1=O [Example 62],
logP = 2.52^a),CN1CCN(C(=O)Nc2cc(-n3c(=O)cc(C(F)(F)F)n(C)c3=O)c(F)cc2Cl)C1=O [Example 51],
logP = 3.10^a),Cn1c(C(F)(F)F)cc(=O)n(-c2cc(NC(=O)N3CCCCCC3)c(Br)cc2F)c1=O [Example 99],
logP = 2.62^a),CCOC(=O)CONC(=O)Nc1cc(-n2c(=O)cc(C(F)(F)F)n(C)c2=O)c(F)cc1Br [Example 105],
logP = 2.59^a),COC(=O)CSC(=O)Nc1cc(-n2c(=O)cc(C(F)(F)F)n(C)c2=O)c(F)cc1Br [Example 19],
logP = 1.77^a),Cn1c(C(F)(F)F)cc(=O)n(-c2cc(NC(=O)N3CCC(O)CC3)c(Cl)cc2F)c1=O [Example 117],
logP = 1.80^a),CC(=O)NC1CCN(C(=O)Nc2cc(-n3c(=O)cc(C(F)(F)F)n(C)c3=O)c(F)cc2Br)C1 (stereo not drawn) [Example 95],
logP = 3.15^a),CCOC(=O)C(C)SC(=O)Nc1cc(-n2c(=O)cc(C(F)(F)F)n(C)c2=O)c(F)cc1Br (stereo not drawn) [Example 17],
logP = 2.74^a),CCOC(=O)COC(=O)Nc1cc(-n2c(=O)cc(C(F)(F)F)n(C)c2=O)c(F)cc1Cl [Example 126],
logP = 3.06^a),CCON(C)C(=O)Nc1cc(-n2c(=O)cc(C(F)(F)F)n(C)c2=O)c(F)cc1Br [Example 69],
logP = 2.41^a),Cn1c(C(F)(F)F)cc(=O)n(-c2cc(NC(=O)N3CCCS3(=O)=O)c(Br)cc2F)c1=O [Example 103],
logP = 2 2.81^a),CCN1CCN(C(=O)Nc2cc(-n3c(=O)cc(C(F)(F)F)n(C)c3=O)c(F)cc2Cl)C1=O [Example 53],
logP = 3.41^a),CCON(CC)C(=O)Nc1cc(-n2c(=O)cc(C(F)(F)F)n(C)c2=O)c(F)cc1Br [Example 72],
logP = 3.02^a),Cn1c(C(F)(F)F)cc(=O)n(-c2cc(NC(=O)N3CCCCCC3)c(Cl)cc2F)c1=O [Example 98],
